Results taken from BindingDB's records for PubMed 33422907 (Universita Paul Sabatier, 2021).

target: Signal transducer and activator of transcription 3 (Homo sapiens, UniProt P40763); experiment: Inhibition of STAT3 in human Hep3B cells assessed as inhibition of IL-6 stimulated STAT3 expression by luciferase reporter assay
Sequence (P40763 whole entry): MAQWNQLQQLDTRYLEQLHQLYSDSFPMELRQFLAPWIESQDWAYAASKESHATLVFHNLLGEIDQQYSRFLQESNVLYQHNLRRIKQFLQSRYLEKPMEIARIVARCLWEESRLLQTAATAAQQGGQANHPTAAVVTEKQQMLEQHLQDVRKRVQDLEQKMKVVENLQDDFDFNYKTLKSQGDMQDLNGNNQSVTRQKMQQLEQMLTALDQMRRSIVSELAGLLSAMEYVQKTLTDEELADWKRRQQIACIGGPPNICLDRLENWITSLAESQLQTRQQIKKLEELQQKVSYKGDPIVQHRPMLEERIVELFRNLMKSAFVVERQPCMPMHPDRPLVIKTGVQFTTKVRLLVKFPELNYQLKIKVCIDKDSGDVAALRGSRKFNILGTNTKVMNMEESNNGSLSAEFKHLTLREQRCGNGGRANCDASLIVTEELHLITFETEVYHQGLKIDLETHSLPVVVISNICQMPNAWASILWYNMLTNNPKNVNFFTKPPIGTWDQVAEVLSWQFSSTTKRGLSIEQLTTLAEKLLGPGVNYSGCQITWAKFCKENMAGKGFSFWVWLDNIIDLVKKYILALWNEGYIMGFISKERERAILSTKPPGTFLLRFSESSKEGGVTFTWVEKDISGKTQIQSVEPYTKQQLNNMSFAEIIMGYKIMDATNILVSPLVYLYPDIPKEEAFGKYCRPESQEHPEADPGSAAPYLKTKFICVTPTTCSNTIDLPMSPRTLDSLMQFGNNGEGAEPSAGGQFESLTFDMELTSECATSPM

Row | IC50 | SMILES
1 | 12.9 µM | COc1ccc(/C=C/[C@@H](C[C@@H](O)CCc2ccc(OC)c(OC)c2)OC)cc1OC
2 | 19.9 µM | COc1ccc(/C=C/[C@H](O)C[C@@H](O)CCc2ccc(OC)c(OC)c2)cc1OC
3 | 4.1 µM | COc1ccc(/C=C/C=C/C(=O)/C=C/c2ccc(O)cc2)cc1
4 | 50 µM | COc1ccc(CC[C@@H](O)C[C@H](O)CCc2ccc(OC)c(OC)c2)cc1OC
5 | 11.1 µM | COc1ccc(/C=C/C(C[C@H](O)CCc2ccc(OC)c(OC)c2)OC)cc1OC (stereo partly drawn)
6 | 21.5 µM | COc1cc(/C=C/C(=O)CC(=O)CC(O)c2ccc(O)c(OC)c2)ccc1O (stereo not drawn)
7 | 37.6 µM | COc1ccc(CC[C@H](O)C[C@@H](O)/C=C/c2cc(OC)c(OC)c(OC)c2)cc1OC
8 | 0.67 µM | O=[N+]([O-])c1ccc2c(c1)S(=O)(=O)C=C2
